Results from patent EP0238178B1, “Novel derivatives of erythromycylamine” (ELI LILLY AND COMPANY, priority 1986, dated 1987).
Values after ≈ are worked out from the molar mass of the structure shown.

Experiments:
[1] = test system: Staphylococcus epidermidis 222; assay: MIC, standard agar-dilution assay; assay type: cell-based; details: read-out: MIC
[2] = test system: Staphylococcus aureus X1.1; assay: MIC, standard agar-dilution assay; assay type: cell-based; details: read-out: MIC
[3] = test system: Streptococcus sp. group D X66; assay: MIC, standard agar-dilution assay; assay type: cell-based; details: Streptococcus sp. group D X66; read-out: MIC
[4] = test system: Streptococcus pyogenes C203; assay: MIC, standard agar-dilution assay; assay type: cell-based; details: read-out: MIC
[5] = test system: Staphylococcus aureus X400; assay: MIC, standard agar-dilution assay; assay type: cell-based; details: Staphylococcus aureus X400, Methicillin-resistant strain, inducibly-resistant to erythromycin; read-out: MIC
Excerpt: (§1) In addition to excellent in vitro activity against erythromycin-sensitive bacteria, several members of this new series have shown in vitro activity against erythromycin-resistant strains. These include strains which are inducibly-resistant to erythromycin (S.. aureus V41 and X400 and S. epidermidis EPI1) and even strains which are constitutively-resistant (S. epidermidis 270).

[6] = test system: Staphylococcus aureus V41; assay: MIC, standard agar-dilution assay; assay type: cell-based; details: Staphylococcus aureus V41, Penicillin-resistant strain, inducibly-resistant to erythromycin; read-out: MIC
Excerpt: as §1

[7] = test system: Haemophilus influenzae 76; assay: MIC, standard agar-dilution assay; assay type: cell-based; details: Haemophilus influenzae 76, Ampicillin-resistant strain; read-out: MIC
[8] = test system: Staphylococcus aureus S13E; assay: MIC, standard agar-dilution assay; assay type: cell-based
Streptococcus pyogenes = assay: Experimental bacterial infection in mice, ED50; assay type: in vivo; details: two doses, dose protecting 50% of animals; for ED50: Streptococcus pyogenes, po, read-out: Oral ED50
Description: (§2) The new derivatives of this invention have also shown in vivo antimicrobial activity against experimental bacterial infections. When two doses of test compound were administered to mice in experimental infections, the activity observed was measured as an EDso value [effective dose in mg/kg to protect 50% of the test animals: see Warren Wick, et al., J. Bacteriol. 81, 233-235 (1961)].

Staphylococcus aureus = assay: Experimental bacterial infection in mice, ED50; assay type: in vivo; details: Staphylococcus aureus, po, two doses, dose protecting 50% of animals, read-out: Oral ED50
Description: as §2

Streptococcus pneumoniae = assay: Experimental bacterial infection in mice, ED50; assay type: in vivo; details: two doses, dose protecting 50% of animals; for ED50: Streptococcus pneumoniae, po, read-out: Oral ED50
Description: as §2

[9] = test system: Haemophilus influenzae C.L.; assay: MIC, standard agar-dilution assay; assay type: cell-based; details: Ampicillin-sensitive strain, read-out: MIC
[10] = test system: Streptococcus sp. group D 2041; assay: MIC, standard agar-dilution assay; assay type: cell-based; details: read-out: MIC
[11] = test system: Streptococcus pneumoniae Park I; assay: MIC, standard agar-dilution assay; assay type: cell-based; details: read-out: MIC
[12] = test system: Klebsiella pneumoniae X68; assay: MIC, standard agar-dilution assay; assay type: cell-based; details: read-out: MIC
Escherichia coli EC14 = assay: MIC, standard agar-dilution assay; assay type: cell-based; details: read-out: MIC

SMILES	MIC [1]	MIC [2]	MIC [3]	MIC [4]	MIC [5]	MIC [6]	MIC [7]	MIC [8]	ED50 (Streptococcus pyogenes)	Oral ED50 (Streptococcus pyogenes; oral)	ED50 (Staphylococcus aureus)	ED50 (Streptococcus pneumoniae)	Oral ED50 (Streptococcus pneumoniae; oral)	MIC [9]	MIC [10]	MIC [11]	MIC [12]	MIC (Escherichia coli EC14)
CCCCCCCCN[C@@H]1[C@H](C)[C@@H](O)[C@](C)(O)[C@@H](CC)OC(=O)[C@H](C)[C@@H](O[C@H]2C[C@@](C)(OC)[C@@H](O)[C@H](C)O2)[C@H](C)[C@@H](O[C@@H]2O[C@H](C)C[C@H](N(C)C)[C@H]2O)[C@](C)(O)C[C@H]1C [Compound 8, 9-Deoxo-9-(n-octylamino)erythromcin]	0.25 µg/mL (≈ 0.295 µM)	0.5 µg/mL (≈ 0.59 µM)	0.06 µg/mL (≈ 0.0708 µM)	0.015 µg/mL (≈ 0.0177 µM)	8 µg/mL (≈ 9.44 µM)	8 µg/mL (≈ 9.44 µM)	1 µg/mL (≈ 1.18 µM)	0.25 µg/mL (≈ 0.295 µM)	23.4 mg/kg	38.3 mg/kg	> 50 mg/kg	46.1 mg/kg	> 50 mg/kg	1 µg/mL (≈ 1.18 µM)	1 µg/mL (≈ 1.18 µM)	0.015 µg/mL (≈ 0.0177 µM)	–	–
CCCCN[C@@H]1[C@H](C)[C@@H](O)[C@](C)(O)[C@@H](CC)OC(=O)[C@H](C)[C@@H](O[C@H]2C[C@@](C)(OC)[C@@H](O)[C@H](C)O2)[C@H](C)[C@@H](O[C@@H]2O[C@H](C)C[C@H](N(C)C)[C@H]2O)[C@](C)(O)C[C@H]1C [Compound 4, 9-Deoxo-9-(n-butylamino)erythromycin]	0.25 µg/mL (≈ 0.316 µM)	0.25 µg/mL (≈ 0.316 µM)	0.125 µg/mL (≈ 0.158 µM)	0.06 µg/mL (≈ 0.0758 µM)	–	–	1 µg/mL (≈ 1.26 µM)	1 µg/mL (≈ 1.26 µM)	12.5 mg/kg	–	14.7 mg/kg	12.5 mg/kg	–	1 µg/mL (≈ 1.26 µM)	1 µg/mL (≈ 1.26 µM)	0.015 µg/mL (≈ 0.019 µM)	128 µg/mL (≈ 162 µM)	64 µg/mL (≈ 80.9 µM)
CCN[C@@H]1[C@H](C)[C@@H](O)[C@](C)(O)[C@@H](CC)OC(=O)[C@H](C)[C@@H](O[C@H]2C[C@@](C)(OC)[C@@H](O)[C@H](C)O2)[C@H](C)[C@@H](O[C@@H]2O[C@H](C)C[C@H](N(C)C)[C@H]2O)[C@](C)(O)C[C@H]1C [Compound 2, (9S)-9-Deoxo-9-(ethylamino)erythromycin]	1 µg/mL (≈ 1.31 µM)	1 µg/mL (≈ 1.31 µM)	0.25 µg/mL (≈ 0.328 µM)	0.125 µg/mL (≈ 0.164 µM)	–	–	4 µg/mL (≈ 5.24 µM)	2 µg/mL (≈ 2.62 µM)	12.5 mg/kg	–	23.4 mg/kg	13.4 mg/kg	–	1 µg/mL (≈ 1.31 µM)	4 µg/mL (≈ 5.24 µM)	0.03 µg/mL (≈ 0.0393 µM)	64 µg/mL (≈ 83.9 µM)	32 µg/mL (≈ 41.9 µM)
CC[C@H]1OC(=O)[C@H](C)[C@@H](O[C@H]2C[C@@](C)(OC)[C@@H](O)[C@H](C)O2)[C@H](C)[C@@H](O[C@@H]2O[C@H](C)C[C@H](N(C)C)[C@H]2O)[C@](C)(O)C[C@@H](C)[C@H](NCCC(C)C)[C@H](C)[C@@H](O)[C@]1(C)O [Compound 11, 9-Deoxo-9-[(3-methylbutyl)amino]erythromycin]	0.25 µg/mL (≈ 0.311 µM)	1 µg/mL (≈ 1.24 µM)	0.125 µg/mL (≈ 0.155 µM)	0.06 µg/mL (≈ 0.0745 µM)	–	–	1 µg/mL (≈ 1.24 µM)	0.5 µg/mL (≈ 0.621 µM)	8.8 mg/kg	–	12.5 mg/kg	10.8 mg/kg	–	1 µg/mL (≈ 1.24 µM)	1 µg/mL (≈ 1.24 µM)	0.03 µg/mL (≈ 0.0373 µM)	128 µg/mL (≈ 159 µM)	128 µg/mL (≈ 159 µM)
CC[C@H]1OC(=O)[C@H](C)[C@@H](O[C@H]2C[C@@](C)(OC)[C@@H](O)[C@H](C)O2)[C@H](C)[C@@H](O[C@@H]2O[C@H](C)C[C@H](N(C)C)[C@H]2O)[C@](C)(O)C[C@@H](C)[C@H](NCC2CCCCCCC2)[C@H](C)[C@@H](O)[C@]1(C)O [Compound 16, 9-Deoxo-9-[(cyclooctylmethyl)amino]erythromycin]	0.25 µg/mL (≈ 0.291 µM)	0.5 µg/mL (≈ 0.582 µM)	< 0.008 µg/mL	< 0.008 µg/mL	64 µg/mL (≈ 74.5 µM)	64 µg/mL (≈ 74.5 µM)	1 µg/mL (≈ 1.16 µM)	0.06 µg/mL (≈ 0.0698 µM)	–	–	–	–	–	1 µg/mL (≈ 1.16 µM)	1 µg/mL (≈ 1.16 µM)	–	–	64 µg/mL (≈ 74.5 µM)
CC[C@H]1OC(=O)[C@H](C)[C@@H](O[C@H]2C[C@@](C)(OC)[C@@H](O)[C@H](C)O2)[C@H](C)[C@@H](O[C@@H]2O[C@H](C)C[C@H](N(C)C)[C@H]2O)[C@](C)(O)C[C@@H](C)[C@H](NCC(C)(C)CO)[C@H](C)[C@@H](O)[C@]1(C)O [Compound 22, 9-Deoxo-9-[(3-hydroxy-2,2-dimethylpropyl)amino]erythromycin]	1 µg/mL (≈ 1.22 µM)	1 µg/mL (≈ 1.22 µM)	0.25 µg/mL (≈ 0.304 µM)	0.03 µg/mL (≈ 0.0365 µM)	–	–	0.25 µg/mL (≈ 0.304 µM)	1 µg/mL (≈ 1.22 µM)	19.8 mg/kg	–	> 50 mg/kg	46.1 mg/kg	–	1 µg/mL (≈ 1.22 µM)	4 µg/mL (≈ 4.87 µM)	0.015 µg/mL (≈ 0.0183 µM)	64 µg/mL (≈ 77.9 µM)	32 µg/mL (≈ 39 µM)
